Results published in patent US9751875B2, “Quinine compounds, and optical isomers, preparation method and medical use thereof” (BEIJING FSWELCOME TECHNOLOGY DEVELOPMENT CO., LTD., priority 2013, dated 2017).
Read-outs that look alike come from different tables or passages of the source.

How the values were obtained:
[1] = system: tracheal smooth muscle from guinea pigs (contraction induced by 3 × 10^−6 mol/L of CCh); experiment: Antagonism in vitro of contraction of isolated tracheal smooth muscle from guinea pigs induced by carbachol (CCh); type: cell-based, guinea pig
Excerpt: Preparation of the Isolated Tracheal Smooth Muscle Specimen from a Guinea Pig:
After a guinea pig was narcotized with urethane, the trachea between the throat and carina of the guinea pig was taken out rapidly, and placed in the Krebs-Henseleit (K-H) solution (composition (g/L): NaCl 6.92, KCl 0.35, CaCl2 0.28, KH2PO4 0.16, MgSO4.7H2O 0.4568, NaHCO3 2.1, Glucose 2.0) with a mixture gas of 5% CO2 and 95% O2 purged. After loose connective tissues and fats around the trachea were separated, the trachea was cut into trachea pieces having a width of about 3 mm and a length of 20 mm by a surgical scissor, with both ends of the trachea piece ligated with 4˜0 silk suture, and then placed into a thermostatic bath containing 5 ml of K—H solution (pH 7.4) at 37° C., with the mixture gas of 5% CO2 and 95% O2 continuously purged. A muscle tension transducer was connected to the upper end so as to apply 1.0 g of resting tension to the specimen, the change of the tension was recorded, the culture solution was replaced every 20 min, and the test was started after being balanced for 60 min.
Administration method: After the trachea piece was stabilized, 3×10^−6 mol/L of CCh was added into a bath, and after the contractile tension of the trachea piece reached a peak level, the example compounds, ipratropium bromide and tiotropium bromide were added into a Magnus bath by a cumulative dosing regimen with a dosage of 10^−9˜10^−5 mol, respectively, and the diastolic condition of the trachea piece was observed: if no response occurred (below the threshold concentration), a next dosage was continued to be added in sequence; if response occurred, after it reached a diastolic plateau, a next dosage was further added. The above operation was repeated until the contractile curve reached the minimum value. Finally, 10^−6 mol/L of isoprenaline was added so that the maximum relaxation would be reached and the curve was recorded.
Statistical approach: The result was expressed as mean ±standard deviation, and counted by Sigma Stat statistical package. The data was analyzed by using variance analysis, the comparison among means of a plurality of specimen was performed by using Student-Newman-Keuls(SNK) test; statistical significant level α=0.05 (bilateral).
Compounds shown in Table 5 were further prepared according to the present invention, and their IC50 […] of resistance to the contraction of tracheal smooth muscle from guinea pigs induced by a concentration of 3×10^−6 mol/L of CCh was determined.

[2] = system: tracheal smooth muscle from guinea pigs (contraction induced by 3 × 10^−6 mol/L of CCh); experiment: as above; type: cell-based, guinea pig; remark: listed apart in the source
[3] = read-out: IC50 (μM), antagonism in vitro against the contraction of the tracheal smooth muscle induced by CCh, 3 × 10^−6 mol/L of CCh, cumulative dosing
[4] = Cavia porcellus, read-out: IC50 (μM), antagonism in vitro against the contraction of the tracheal smooth muscle induced by CCh, 3 × 10^−6 mol/L of CCh, cumulative dosing
[5] = Cavia porcellus, 3 × 10^−6 mol/L of CCh, cumulative dosing, read-out: IC50 (μM), antagonism in vitro against the contraction of the tracheal smooth muscle induced by CCh
[6] = 3 × 10^−6 mol/L of CCh, cumulative dosing, read-out: IC50 (μM), antagonism in vitro against the contraction of the tracheal smooth muscle induced by CCh
[7] = Cavia porcellus, read-out: Resistance to the contraction of smooth muscle from guinea pigs in vitro, IC50 (μM), 3 × 10^−6 mol/L of CCh, Table 5
[8] = Cavia porcellus, 3 × 10^−6 mol/L of CCh, Table 5, read-out: Resistance to the contraction of smooth muscle from guinea pigs in vitro, IC50

OC(CO[C@H]1C[N+]2(CCCOc3ccccc3)CCC1CC2)(c1ccccc1)C1CCCC1.[Br-] (stereo partly drawn) [Example 2, (2S,3S)-3-[(2-cyclopentyl-2-hydroxyl-2-phenyl)ethoxyl]-1-(3-phenoxypropyl)-1-azabicyclo[2,2,2]octane bromide]
IC50 [1, 3]: 2.85 µM | Onset time [2]: 6.53 min | Time for eliminating inhibition effect (min) [2]: more than 300 min

OC(CO[C@@H]1C[N+]2(CCCOc3ccccc3)CCC1CC2)(c1ccccc1)C1CCCC1.[Br-] (stereo partly drawn) [Example 3, (2S,3R)-3-[(2-cyclopentyl-2-hydroxyl-2-phenyl)ethoxyl]-1-(3-phenoxypropyl)-1-azabicyclo[2,2,2]octane bromide]
IC50 [1, 3]: 0.852 µM | Onset time [2]: 6.54 min | Time for eliminating inhibition effect (min) [2]: more than 300 min

OC(CO[C@H]1C[N+]2(CCCOc3ccccc3)CCC1CC2)(c1ccccc1)C1CCCCC1.[Br-] (stereo partly drawn) [Example 7, (2R,3S)-3-[(2-cyclohexyl-2-hydroxyl-2-phenyl)ethoxyl]-1-(3-phenoxypropyl)-1-azabicyclo[2,2,2]octane bromide]
IC50 [1, 4]: 0.791 µM | Onset time [2]: 6.56 min | Time for eliminating inhibition effect (min) [2]: more than 300 min

O[C@](CO[C@H]1C[N+]2(CCCOc3ccccc3)CCC1CC2)(c1ccccc1)C1CCCCC1.[Br-] [Example 8, (2S,3S)-3-[(2-cyclohexyl-2-hydroxyl-2-phenyl)ethoxyl]-1-(3-phenoxypropyl)-1-azabicyclo[2,2,2]octane bromide]
IC50 [1, 4]: 2.35 µM | Onset time [2]: 6.72 min | Time for eliminating inhibition effect (min) [2]: more than 300 min

O[C@](COC1C[N+]2(CCCOc3ccccc3)CCC1CC2)(c1ccccc1)C1CCCCC1.[Br-] (stereo partly drawn) [Example 9, (2S,3R)-3-[(2-cyclohexyl-2-hydroxyl-2-phenyl)ethoxyl]-1-(3-phenoxypropyl)-1-azabicyclo[2,2,2]octane bromide]
IC50 [1, 4]: 0.758 µM | Onset time [2]: 6.13 min | Time for eliminating inhibition effect (min) [2]: more than 300 min

OC(CO[C@H]1C[N+]2(CCCOc3ccccc3)CCC1CC2)(c1ccccc1)C1CCCCC1 (stereo partly drawn) [Example 11, (2R,3S),(2S,3R) Configuration of 3-[(2-cyclohexyl-2-hydroxyl-2-phenyl)ethoxyl]-1-(3-phenoxypropyl)-1-azabicyclo[2,2,2]octane bromide]
IC50 [1, 5]: 1.36 µM | Onset time [2]: 6.77 min | Time for eliminating inhibition effect (min) [2]: more than 300 min

OC(CO[C@H]1C[N+]2(CCCOc3ccccc3)CCC1CC2)(c1ccccc1)C1CCC1 (stereo partly drawn) [Example 13, (2R,3S)-3-[(2-cyclobutyl-2-hydroxyl-2-phenyl)ethoxyl]-1-(3-phenoxypropyl)-1-azabicyclo[2,2,2]octane bromide]
IC50 [1, 5]: 0.917 µM | Onset time [2]: 7.25 min | Time for eliminating inhibition effect (min) [2]: more than 300 min

OC(CO[C@@H]1C[N+]2(CCCOc3ccccc3)CCC1CC2)(c1ccccc1)C1CCC1.[Br-] (stereo partly drawn) [Example 15, (2S,3R)-3-[(2-cyclobutyl-2-hydroxyl-2-phenyl)ethoxyl]-1-(3-phenoxypropyl)-1-azabicyclo[2,2,2]octane bromide]
IC50 [1, 3]: 1.52 µM | Onset time [2]: 6.29 min | Time for eliminating inhibition effect (min) [2]: more than 300 min

OC(CO[C@H]1C[N+]2(CCCOc3ccccc3)CCC1CC2)(c1ccccc1)C1CCC1 (stereo partly drawn) [Example 17, (2R,3S),(2S,3R)-3-[(2-cyclobutyl-2-hydroxyl-2-phenyl)ethoxyl]-1-(3-phenoxypropyl)-1-azabicyclo[2,2,2]octane bromide]
IC50 [1, 6]: 1.57 µM | Onset time [2]: 7.05 min | Time for eliminating inhibition effect (min) [2]: more than 300 min

OC(CO[C@H]1C[N+]2(CCCOc3ccccc3)CCC1CC2)(c1ccccc1)C1CCC1 (stereo partly drawn) [Example 18, (2R,3R),(2S,3S)-3-[(2-cyclobutyl-2-hydroxyl-2-phenyl)ethoxyl]-1-(3-phenoxypropyl)-1-azabicyclo[2,2,2]octane bromide]
IC50 [1, 6]: 0.156 µM | Onset time [2]: 6.92 min | Time for eliminating inhibition effect (min) [2]: more than 300 min

OC(CO[C@H]1C[N+]2(CCCOc3ccccc3)CCC1CC2)(c1ccccc1)C1CC1 (stereo partly drawn) [Example 19, (2R,3S)-3-[(2-cyclopropyl-2-hydroxyl-2-phenyl)ethoxyl]-1-(3-phenoxypropyl)-1-azabicyclo[2,2,2]octane bromide]
IC50 [1, 5]: 1.76 µM | Onset time [2]: 6.68 min | Time for eliminating inhibition effect (min) [2]: more than 300 min

COc1cccc2cccc(C(O)(COC3C[N+]4(CCCOc5ccccc5)CCC3CC4)C3CCCC3)c12 (stereo not drawn) [Example 34]
IC50 [1, 7]: 0.654 µM

OC(CCOC1C[N+]2(CCCOc3ccccc3)CCC1CC2)(c1ccccc1)C1CCCC1 (stereo not drawn) [Example 35]
IC50 [1, 7]: 0.102 µM

CC(=O)OC(COC1C[N+]2(CCCOc3ccccc3)CCC1CC2)(c1ccccc1)C1CCCC1 (stereo not drawn) [Example 36]
IC50 [1, 7]: 0.068 µM

OC(COC1C[N+]2(CCCOc3ccccc3)CCC1CC2)(c1cccs1)C1CCCC1 (stereo not drawn) [Example 37]
IC50 [1, 7]: 0.0783 µM

OC(CCCCCCCOC1C[N+]2(CCCOc3ccccc3)CCC1CC2)(c1ccsc1)C1CCCC1 (stereo not drawn) [Example 38]
IC50 [1, 7]: 0.0317 µM

COC1C[N+]2(CCCOc3ccccc3)CCC1C(OCC(O)(c1ccccc1)C1CCCC1)C2 (stereo not drawn) [Example 39]
IC50 [1, 7]: 0.045 µM

ClC(COC1C[N+]2(CCCOc3ccccc3)CCC1CC2)(c1ccccc1)C1CCCC1 (stereo not drawn) [Example 40]
IC50 [1, 7]: 0.805 µM

Cc1ccc(OCCC[N+]23CCC(CC2)C(OCC(O)(c2ccccc2)C2CCCC2)C3)cc1 (stereo not drawn) [Example 41]
IC50 [1, 7]: 0.0562 µM

COc1ccc(OCCC[N+]23CCC(CC2)C(OCC(O)(c2ccccc2)C2CCCC2)C3)cc1 (stereo not drawn) [Example 42]
IC50 [1, 7]: 0.078 µM

CC(Oc1ccccc1)[N+]12CCC(CC1)C(OCC(O)(c1ccccc1)C1CCCC1)C2 (stereo not drawn) [Example 43]
IC50 [1, 7]: 0.0615 µM

CC(C)(Oc1ccccc1)[N+]12CCC(CC1)C(OCC(O)(c1ccccc1)C1CCCC1)C2 (stereo not drawn) [Example 44]
IC50 [1, 7]: 0.147 µM

OC(COC1C[N+]2(C3(COc4ccccc4)CCCC3)CCC1CC2)(c1ccccc1)C1CCCC1 (stereo not drawn) [Example 45]
IC50 [1, 7]: 0.512 µM

OC(COC1C[N+]2(C3(COc4ccccc4)C=CC=C3)CCC1CC2)(c1ccccc1)C1CCCC1 (stereo not drawn) [Example 46]
IC50 [1, 7]: 1.23 µM

CCCCC(O)(COC1C[N+]2(CCCOc3ccccc3)CCC1CC2)c1ccccc1 (stereo not drawn) [Example 47]
IC50 [1, 7]: 0.506 µM

OC(COC1C[N+]2(CCCOc3ccccc3)CCC1CC2)(c1ccccc1)C1CCCC1 (stereo not drawn) [Example 48]
IC50 ([1]; read-out: Resistance to the contraction of smooth muscle from guinea pigs in vitro, IC50, 3 × 10^−6 mol/L of CCh, Table 5): 1.18 µM

CC1CCCC1C(O)(COC1C[N+]2(CCCOc3ccccc3)CCC1CC2)c1ccccc1 (stereo not drawn) [Example 49]
IC50 [1, 7]: 0.045 µM

CC1=CC=CC1C(O)(COC1C[N+]2(CCCOc3ccccc3)CCC1CC2)c1ccccc1 (stereo not drawn) [Example 50]
IC50 [1, 7]: 0.413 µM

COC1C(OCC(O)(c2ccccc2)C2CCCC2)C2CC[N+]1(CCCOc1ccccc1)CC2 (stereo not drawn) [Example 52]
IC50 [1, 7]: 0.513 µM

OC(COC1C[N+]2(CCCOc3ccccc3)CCC1CC2)(CC1CCCC1)c1ccccc1 (stereo not drawn) [Example 53]
IC50 [1, 7]: 2.17 µM

OC(COC1C[N+]2(CCCOc3ccccc3)CCC1CC2)(c1ccccc1)C1CCCC1 (stereo not drawn) [Example 54]
IC50 [1, 8]: 0.0376 µM

OC(COC1C[N+]2(CCCOc3ccccc3)CCC1CC2)(c1ccccc1)C1CCCC1 (stereo not drawn) [Example 55]
IC50 [1, 8]: 0.0359 µM
